From the NIST ThermoML archive (doi:10.1016/j.jct.2012.01.013)
Numbers after ± are expanded uncertainties.

Details: 101.33 kPa, Liquid; for viscosity: Falling or rolling sphere viscometry; for mass density: Vibrating tube method

## CCCO [propan-1-ol]
293.15 K
  viscosity: 2.206 ± 0.062 mPa·s
  mass density: 803.58 ± 0.15 kg/m3
298.15 K
  viscosity: 1.976 ± 0.062 mPa·s
  mass density: 799.61 ± 0.15 kg/m3
303.15 K
  viscosity: 1.737 ± 0.061 mPa·s
  mass density: 795.6 ± 0.15 kg/m3
308.15 K
  viscosity: 1.548 ± 0.061 mPa·s
  mass density: 791.51 ± 0.15 kg/m3
313.15 K
  viscosity: 1.383 ± 0.061 mPa·s
  mass density: 787.39 ± 0.15 kg/m3

## CC(=O)[O-].Cn1cc[nH+]c1 [1-methylimidazolium acetate]
293.15 K
  viscosity: 8.196 ± 0.094 mPa·s
  mass density: 1079.75 ± 0.29 kg/m3
298.15 K
  viscosity: 6.926 ± 0.085 mPa·s
  mass density: 1075.33 ± 0.29 kg/m3
303.15 K
  viscosity: 5.913 ± 0.079 mPa·s
  mass density: 1070.89 ± 0.29 kg/m3
308.15 K
  viscosity: 5.069 ± 0.075 mPa·s
  mass density: 1066.45 ± 0.28 kg/m3
313.15 K
  viscosity: 4.395 ± 0.071 mPa·s
  mass density: 1062 ± 0.28 kg/m3

## CO [methanol]
293.15 K
  viscosity: 0.588 ± 0.06 mPa·s
  mass density: 791.22 ± 0.15 kg/m3
298.15 K
  viscosity: 0.551 ± 0.06 mPa·s
  mass density: 786.52 ± 0.15 kg/m3
303.15 K
  viscosity: 0.517 ± 0.06 mPa·s
  mass density: 781.81 ± 0.15 kg/m3
308.15 K
  viscosity: 0.486 ± 0.06 mPa·s
  mass density: 777.06 ± 0.15 kg/m3
313.15 K
  viscosity: 0.46 ± 0.06 mPa·s
  mass density: 772.27 ± 0.15 kg/m3

## CCO [ethanol]
293.15 K
  mass density: 789.48 ± 0.15 kg/m3
298.15 K
  mass density: 785.41 ± 0.15 kg/m3
303.15 K
  mass density: 780.65 ± 0.15 kg/m3
308.15 K
  mass density: 776.31 ± 0.15 kg/m3
313.15 K
  mass density: 772.08 ± 0.15 kg/m3

## CCCCO [butan-1-ol]
293.15 K
  viscosity: 2.941 ± 0.064 mPa·s
  mass density: 809.77 ± 0.14 kg/m3
298.15 K
  viscosity: 2.573 ± 0.063 mPa·s
  mass density: 805.98 ± 0.14 kg/m3
303.15 K
  viscosity: 2.264 ± 0.062 mPa·s
  mass density: 802.08 ± 0.15 kg/m3
308.15 K
  viscosity: 2.002 ± 0.062 mPa·s
  mass density: 798.19 ± 0.15 kg/m3
313.15 K
  viscosity: 1.788 ± 0.061 mPa·s
  mass density: 794.36 ± 0.15 kg/m3

## O [water]
293.15 K
  viscosity: 1.002 ± 0.06 mPa·s
298.15 K
  viscosity: 0.891 ± 0.06 mPa·s
303.15 K
  viscosity: 0.798 ± 0.06 mPa·s
308.15 K
  viscosity: 0.718 ± 0.06 mPa·s
313.15 K
  viscosity: 0.652 ± 0.06 mPa·s
